Key:
K562 = test: Cytotoxicity against cancer cell lines (Example 5), K562; format: cell-based; conditions: Tables 5-12
Description: (§1) All of the compounds synthesized were tested against a number of cancer cell lines: Hela KB, Cos7, Molt4, K562, EU1, and T98G. The cancer cell lines vary from leukemia cell lines (Molt4, EU, K562) to solid-state tumor cell lines (Hela, KB, Cos7) and the drug resistant cell lines (T98G).

MOLT4 [1] = test: Cytotoxicity against cancer cell lines (Example 5), Molt4; format: cell-based
Description: as §1

Cos7 = test: Cytotoxicity against cancer cell lines (Example 5), Cos7; format: cell-based; conditions: Tables 5-12
Description: as §1

HeLa [2] = test: Cytotoxicity against cancer cell lines (Example 5), Hela; format: cell-based; conditions: Tables 5-12
Description: as §1

T98G = test: Cytotoxicity against cancer cell lines (Example 5), T98G; format: cell-based; conditions: Tables 5-12; drug resistant cell line
Description: as §1

KB = test: Cytotoxicity against cancer cell lines (Example 5), KB; format: cell-based; conditions: Tables 5-12
Description: as §1

EU1 = test: Cytotoxicity against cancer cell lines (Example 5), EU1; format: cell-based; conditions: Tables 5-12
Description: as §1

MOLT4 [3] = test: MTT cytotoxicity evaluation of series 1 and 2 rhein analogues, MOLT4 (Tables 3, 4); conditions: Homo sapiens, MOLT-4, read-out: IC50 (μM) against MOLT4
HeLa [4] = test: MTT cytotoxicity evaluation of series 1 and 2 rhein analogues, HeLa (Tables 3, 4); format: cell-based; conditions: Homo sapiens, HeLa; MTT; Tables 3 and 4; read-out: IC50 (μM) against HeLa
[5] = Tables 5-12, read-out: IC50 Molt4

Compound	IC50 (K562)	IC50 (MOLT4 [1]; [5])	IC50 (Cos7)	IC50 (HeLa [2])	IC50 (T98G)	IC50 (KB)	IC50 (MOLT4 [1]; cell line not given, matches Table 8 Molt4, read-out: IC50 value)	IC50 (EU1)	IC50 (MOLT4 [3])	IC50 (HeLa [4])
CN1CCN(CC(=O)Nc2cc(O)c3c(c2)C(=O)c2cccc(O)c2C3=O)CC1 [BW-AQ-114]	0.84 ± 0.36 µM	0.284 ± 0.021 µM	2 ± 0.6 µM	3.9 ± 1 µM	> 12.5 µM	10.2 ± 2.26 µM	–	–	–	–
COC(=O)c1cc(OCCN=[N+]=[N-])c2c(c1)C(=O)c1cccc(OCCN=[N+]=[N-])c1C2=O [BW-AQ-120]	> 6.25 µM	> 1.6 µM	~50 µM	> 12.5 µM	> 12.5 µM	> 50 µM	–	–	–	–
[N-]=[N+]=NCCOc1cccc2c1C(=O)c1c(OCCN=[N+]=[N-])cc(C(=O)O)cc1C2=O [BW-AQ-121]	> 6.25 µM	> 1.6 µM	> 50 µM	> 12.5 µM	> 12.5 µM	> 50 µM	–	–	–	–
[N-]=[N+]=NCCOc1cccc2c1C(=O)c1c(OCCN=[N+]=[N-])cc(C(=O)N=[N+]=[N-])cc1C2=O [BW-AQ-122]	> 6.25 µM	> 1.6 µM	> 50 µM	> 12.5 µM	> 12.5 µM	> 50 µM	–	–	–	–
[N-]=[N+]=NCCOc1cccc2c1C(=O)c1c(OCCN=[N+]=[N-])cc(N)cc1C2=O [BW-AQ-123]	> 6.25 µM	> 1.6 µM	–	> 50 µM	> 12.5 µM	20.5 µM	–	–	–	–
O=C(CBr)Nc1cc(O)c2c(c1)C(=O)c1cccc(OCc3ccccc3)c1C2=O [BW-AQ-127]	1.95 ± 0.58 µM	–	1.7 ± 0.43 µM	5.6 ± 0.63 µM	13.8 ± 2.5 µM	5.4 ± 2.5 µM	0.028 µM	0.084 ± 0.058 µM	–	–
COc1cccc2c1C(=O)c1c(OC)cc(NC(=O)C(F)(F)F)cc1C2=O [BW-AQ-132]	> 6.25 µM	> 1.6 µM	> 50 µM	> 50 µM	> 12.5 µM	> 50 µM	–	–	–	–
COc1cccc2c1C(=O)c1c(OC)cc(NC(C)=O)cc1C2=O [BW-AQ-134]	> 6.25 µM	> 1.6 µM	> 50 µM	> 50 µM	> 50 µM	> 50 µM	–	–	–	–
COc1cccc2c1C(=O)c1c(OC)cc(NC(=O)CN=[N+]=[N-])cc1C2=O [BW-AQ-137]	> 6.25 µM	> 1.6 µM	> 50 µM	24.6 µM	> 50 µM	23.6 µM	–	–	–	–
COc1cccc2c1C(=O)c1c(OC)cc(NS(=O)(=O)CCl)cc1C2=O [BW-AQ-138]	> 6.25 µM	> 1.6 µM	> 50 µM	> 50 µM	> 50 µM	> 50 µM	–	–	–	–
O=C1c2cccc(O)c2C(=O)c2c(O)cc(-c3cccs3)cc21 [BW-AQ-140]	3.2 ± 1.5 µM	0.209 ± 0.044 µM	2.2 ± 0.41 µM	3.1 ± 0.68 µM	13.8 ± 4 µM	3.4 ± 1.02 µM	–	0.69 ± 0.152 µM	–	–
COc1cccc2c1C(=O)c1c(OC)cc(N)cc1C2=O [BW-AQ-145]	> 25 µM	> 25 µM	> 50 µM	> 50 µM	> 50 µM	> 50 µM	–	> 25 µM	–	–
CCCOC(=O)c1cc(OCCC)c2c(c1)C(=O)c1cccc(OCCC)c1C2=O [BW-AQ-147]	> 25 µM	> 25 µM	–	> 50 µM	> 50 µM	> 50 µM	–	> 25 µM	–	–
O=C(OCc1ccccc1)c1cc(OCc2ccccc2)c2c(c1)C(=O)c1cccc(OCc3ccccc3)c1C2=O [BW-AQ-148]	> 25 µM	> 25 µM	> 50 µM	18.6 µM	> 50 µM	> 50 µM	–	> 25 µM	–	–
[N-]=[N+]=NC(=O)c1cc(OCc2ccccc2)c2c(c1)C(=O)c1cccc(OCc3ccccc3)c1C2=O [BW-AQ-149]	> 25 µM	> 25 µM	> 50 µM	> 50 µM	> 50 µM	> 50 µM	–	> 25 µM	–	–
Nc1cc(OCc2ccccc2)c2c(c1)C(=O)c1cccc(OCc3ccccc3)c1C2=O [BW-AQ-150]	> 25 µM	> 25 µM	17 µM	~50 µM	> 50 µM	> 50 µM	–	> 25 µM	–	–
C=CCOC(=O)c1cc(OCC=C)c2c(c1)C(=O)c1cccc(OCC=C)c1C2=O [BW-AQ-152]	> 25 µM	> 25 µM	12.5 µM	27.6 µM	29.3 µM	22.5 µM	–	> 25 µM	–	–
C=CCOc1cccc2c1C(=O)c1c(OCC=C)cc(C(=O)O)cc1C2=O [BW-AQ-153]	> 25 µM	> 25 µM	> 50 µM	> 50 µM	> 50 µM	> 50 µM	–	> 25 µM	–	–
C=CCOc1cccc2c1C(=O)c1c(OCC=C)cc(C(=O)N=[N+]=[N-])cc1C2=O [BW-AQ-154]	19.5 µM	6.66 µM	19.4 µM	24.3 µM	> 50 µM	> 50 µM	–	3 µM	–	–

Compound	IC50 (K562)	IC50 (MOLT4 [1]; [5])	IC50 (Cos7)	IC50 (HeLa [2])	IC50 (T98G)	IC50 (KB)	IC50 (MOLT4 [1]; cell line not given, matches Table 8 Molt4, read-out: IC50 value)	IC50 (EU1)	IC50 (MOLT4 [3])	IC50 (HeLa [4])
C=CCOc1cccc2c1C(=O)c1c(OCC=C)cc(N)cc1C2=O [BW-AQ-155]	> 25 µM	> 25 µM	> 50 µM	~50 µM	> 50 µM	12.5 µM	–	> 25 µM	–	–
CCOc1cccc2c1C(=O)c1c(OCC)cc(NC(=O)CO)cc1C2=O [BW-AQ-157]	1.8 µM	0.42 µM	5 µM	6.35 µM	15.4 µM	9.5 µM	–	0.358 µM	–	–
C=CC(=O)Nc1cc(OCC)c2c(c1)C(=O)c1cccc(OCC)c1C2=O [BW-AQ-158]	10.7 µM	< 3.2 µM	8.42 µM	19.7 µM	21 µM	20.3 µM	–	6 µM	–	–
C=CCOc1cccc2c1C(=O)c1c(OCC=C)cc(NC(=O)CCl)cc1C2=O [BW-AQ-161]	> 10 µM	> 10 µM	> 20 µM	> 20 µM	> 50 µM	> 20 µM	–	> 10 µM	–	–
C=CCOc1cccc2c1C(=O)c1c(OCC=C)cc(NC(=O)CI)cc1C2=O [BW-AQ-163]	> 25 µM	> 25 µM	> 50 µM	> 50 µM	> 50 µM	14.7 µM	–	> 25 µM	–	–
C=CCOc1cccc2c1C(=O)c1c(OCC=C)cc(NC(=O)CN=[N+]=[N-])cc1C2=O [BW-AQ-164]	> 25 µM	> 25 µM	> 50 µM	> 50 µM	> 50 µM	> 50 µM	–	> 25 µM	–	–
CCOc1cccc2c1C(=O)c1c(OCC)cc(NC(=O)CN)cc1C2=O [BW-AQ-166]	> 25 µM	> 25 µM	–	11 µM	37.3 µM	18.8 µM	–	> 25 µM	–	–
CCOc1cccc2c1C(=O)c1c(OCC)cc(NC(=O)CNC)cc1C2=O [BW-AQ-167]	2.05 µM	21.5 µM	5.51 µM	0.753 µM	11.2 µM	1.54 µM	–	13.6 µM	–	–
COCC(=O)Nc1cc(OC)c2c(c1)C(=O)c1cccc(OC)c1C2=O [BW-AQ-170]	> 25 µM	> 25 µM	–	> 50 µM	> 50 µM	> 50 µM	–	> 25 µM	–	–
COc1cccc2c1C(=O)c1c(OC)cc(NC(=O)C(F)F)cc1C2=O [BW-AQ-171]	> 25 µM	> 25 µM	–	> 50 µM	> 50 µM	50 µM	–	> 25 µM	–	–
COc1cccc2c1C(=O)c1c(OC)cc(NC(=O)CC#N)cc1C2=O [BW-AQ-172]	> 25 µM	> 25 µM	–	> 50 µM	> 50 µM	< 6.25 µM	–	> 25 µM	–	–
COc1cccc2c1C(=O)c1c(OC)cc(NC(=O)CCCl)cc1C2=O [BW-AQ-173]	> 25 µM	> 25 µM	–	50 µM	> 50 µM	50 µM	–	25 µM	–	–
COc1cccc2c1C(=O)c1c(OC)cc(NC(=O)CCCCl)cc1C2=O [BW-AQ-174]	> 25 µM	> 25 µM	–	> 50 µM	> 50 µM	> 50 µM	–	> 25 µM	–	–
COc1cccc2c1C(=O)c1c(OC)cc(NC(=O)COCc3ccccc3)cc1C2=O [BW-AQ-175]	> 25 µM	25 µM	–	> 50 µM	> 50 µM	33.6 µM	–	20.5 µM	–	–
CCOc1cccc2c1C(=O)c1c(OCC)cc(NC(=O)CCCCl)cc1C2=O [BW-AQ-179]	10.7 µM	15.3 µM	–	6.25 µM	50 µM	< 6.25 µM	–	17.6 µM	–	–
CCOc1cccc2c1C(=O)c1c(OCC)cc(NC(=O)COCc3ccccc3)cc1C2=O [BW-AQ-182]	> 25 µM	16.8 µM	–	47.3 µM	> 50 µM	> 50 µM	–	16.8 µM	–	–
CCN(CC)CC(=O)Nc1cc(O)c2c(c1)C(=O)c1cccc(O)c1C2=O [Compound 9a, 1,8-Dihydroxy-3-(2′-diethylamino-acetamido)-anthraquinone]	–	–	–	–	–	–	–	–	3 µM	6.1 µM
CN1CCN(CC(=O)Nc2cc(O)c3c(c2)C(=O)c2cccc(O)c2C3=O)CC1 [Compound 9b, 1,8-Dihydroxy-3-(2′-(4″-methylpiperazin-1″-yl)-acetamido)-anthraquinone]	–	–	–	–	–	–	–	–	3.1 µM	5.8 µM

Reference: patent US10544090B2, “Anthraquinone analogs and methods of making and using thereof” (Georgia State University Research Foundation, Inc., priority 2012, dated 2020)
